Source: US11026972B2, “Methods for generating macrophages with enhanced cancer phagocytosis” (Georgia State University Research Foundation, Inc., priority 2016, dated 2021)

Experiments:
[1] = system: CFSE-labeled CD47^+ or CD47^− RBCs in recipient mice; test: RBC adoptive transfer and in vivo clearance of CFSE-labeled RBCs; parameters: species or system mouse; conditions: SIRPα^−/− mice; 1% DSS for 8 d or directly injected with IL-17; 24 h
Excerpt: FIGS. 2A-2E includes data related to macrophage phagocytosis in vivo assessed by adoptive transfer experiments. FIGS. 2A-C are illustrative graphs showing clearance of adoptively transferred CD47-positive (Cd47^+) or CD47-negative (Cd47^−) RBC in recipient mice. […] Error bars are ±SEM. **P<0.01, ***P<0.001 vs. WT mice clearance of Cd47^+ RBCs. […] Mice treated with DSS (1% for SIRPα^−/− mice, 2% for WT and Cd47^−/− mice) for 8 d (d8) were transfused with CFSE-RBCs followed by determination of RBC clearance after 24 h. FACS data of Cd47^+ RBCs and Cd47^− RBCs in different mice at 30 min and 24 h after transfer were selectively shown. Total RBC phagocytosis was calculated based on the rates of CFSE-RBC clearance and the fact that SIRPα^−/− mice eliminate both Cd47^− RBC and Cd47^+ RBC, whereas WT mice and Cd47^−/− mice eliminate only Cd47^− RBCs. […] Mice treated once with IL-17 (10 μg/kg, i.v.) were transfused with CFSE-labeled Cd47^+ or Cd47^− RBCs a day later. Error bars are ±SEM. **P<0.01, ***P<0.001 vs. control or the initial time point. Data presented in each panel represent at least three independent experiments with n≥4, if applicable.
Adoptive transfer and in vivo clearance: CD47-expressing (CD47^+) RBC freshly collected from WT or SIRPα^−/− mice, and CD47-null (CD47^−) RBC collected from CD47^−/− mice were labeled with carboxyfluorescein succinimidyl ester (CFSE). After washing, about 1×10^9 RBC suspended in 200 μl sterile PBS were transfused into recipient mice by intravenous (i.v.) injection. Blood samples (5 μl) were then collected 30 min after the blood transfusion and the CFSE-labeled RBC in the circulation was assessed by FACS analyses. Blood samples (5 μl each) were then collected at later time points to assess the clearance of CFSE-labeled RBC as compared to that found at 30 min. For each sample, at least 50,000 RBC were examined by FACS. […] Clearance of CFSE-labeled cells in the circulation and the spleen were analyzed by FACS analyses of blood samples and splenocytes. […]

[2] = system: SIRPα^−/− and CD47^−/− mice; test: Acute anemia and splenomegaly in mice deficient of CD47-SIRPα-mediated inhibition under inflammatory conditions; assay type: in vivo, mouse; conditions: colitic SIRPα^−/− mice; 1% DSS, 10 days
Excerpt: FIGS. 1A-1K illustrate our assessment of acute anemia in mice deficient of CD47-SIRPα-mediated inhibition under inflammatory conditions. FIG. 1A includes a schematic drawing of a wild type (WT) and targeted allele of SIRPα (“SIRPα”) and data related to the generation of SIRPα “knock out” (KO) mice. […] Western blot (WB) analysis confirmed the depletion of SIRPα (˜120 kDa) protein in bone marrow leukocytes from SIRPα^−/− mice. FIG. 1B includes a photograph of intestinal tissue and a line graph charting the change in body weight of mice in which colitis had been induced by treatment with 1% or 2% DSS. […] FIGS. 1C and 1D include data related to acute anemia and splenomegaly developed in SIRPα^−/− mice with colitis. WT mice and SIRPα^−/− mice treated with DSS (2% DSS for WT and 1% DSS for SIRPα^−/−) for 10 days were analyzed for the presence of […] (FIG. 1C) and the content of hemoglobin in peripheral blood (FIG. 1D). FIG. 1E includes a panel of photomicrographs in which hematoxylin and eosin (H&E) was used to stain sections of spleens from WT and SIRPα^−/− mice treated with 2% and 1% DSS for 10 days. The bar graph of FIG. 1E illustrates the hemoglobin content in the spleens of WT and SIRPα^−/− mice treated with water or DSS. FIG. 1F is a pair of line graphs showing the time course over which anemia developed in SIRPα^−/− mice when colitis was induced with DSS and the levels of IL-17 in the serum over that same period of time. FIG. 1G is a diagram showing that IL-17 neutralization ameliorates anemia and splenomegaly in SIRPα^−/− mice with colitis. An anti-IL-17 antibody (10 μg, i.v.) was given on days 6 and 8 (arrows) during DSS-induction of colitis. FIG. 1H is a diagram showing that IL-17-containing colitic serum induces acute anemia in SIRPα^−/− mice. Serum samples collected from healthy (Ctl.) and colitic WT mice (2% DSS, 10 d) were administered to healthy SIRPα^−/− mice (i.v., 3×, arrows) with or without an anti-IL-17 antibody. FIGS. 1I and 1J are illustrative graphs showing that IL-17 directly induces acute anemia and splenomegaly in SIRPα^−/− mice and Cd47^−/− mice. Healthy mice were given recombinant IL-17 (10 μg/kg, i.v.) on days 1 and 3 (arrows, FIG. 1J); anemia and splenomegaly were analyzed on day 5 (FIG. 1I) or in a time course manner (FIG. 1J). FIG. 1K includes diagrams showing that acute anemia and splenomegaly in SIRPα^−/− and Cd47^−/− mice under zymosan-peritonitis (3×, every other day), IL-6 administration ([…], i.v.), LPS (0.25 mg/kg, i.p.), and CFA (1×, s.c.) administrations. Error bars are ±SEM **P<0.01, ***P<0.001 vs. control or the beginning time point. Data presented in each panel represent at least three independent experiments with n≥4, if applicable.
Hemoglobin assay: To assay blood hemoglobin, 10 μl of whole blood were obtained from the tail vein followed by lysis in 1 ml distilled water. After centrifugation (13,000 rpm, 30 min), the hemoglobin-containing supernatants were collected and measured for the optical density at the wavelength of 540 nm.
Animal inflammation models: To induce peritonitis, mice (6-8 wk, 20-22 g) were intraperitoneally injected with 0.5 mg zymosan A (Sigma) in 0.5 ml sterile PBS followed by euthanasia at 2, 4, 6 and 8 hours. […] The colitic condition was then assessed by observing diarrhea, measuring body weight loss, increases of inflammatory cytokines, the shortage of the large intestine and intestinal tissue analyses (after euthanasia). […]

[3] = system: splenic macrophages, PEMs and BMDMs; test: Ex vivo macrophage phagocytosis toward RBCs and other self-cells after activation; assay type: cell-based, mouse; conditions: various concentrations of IL-10
Method: FIGS. 3A-3H include data related to our experiments assaying macrophage phagocytosis ex vivo. FIGS. 3A and 3B show macrophage phagocytosis of RBCs. Freshly isolated splenic macrophages (MØ) and peritoneal macrophages (PEM) and in vitro-derived BMDM (bone marrow-derived macrophages) were tested for phagocytosis toward CFSE-labeled Cd47^+ or Cd47^− RBCs. […] FIGS. 3F and 3G illustrate LPS and IL-17-activated PEM phagocytosis toward splenocytes (FIG. 3F), B16, and EL4 (FIG. 3G). Error bars are ±SEM. **P<0.01, ***P<0.001 vs. no treatment controls. […] PEM lavaged without (ctl.) or with Brewer thioglycollate (3%, i.p.) elicitation was tested. Error bars are ±SEM. ***P<0.001 vs. control PEM. Data presented in each panel represent at least three independent experiments with n≥4, if applicable.
FIGS. 4A-4E include data related to our experiments on macrophage phagocytic plasticity. FIG. 4A is a panel of illustrative line graphs showing that IL-10 inhibits macrophage phagocytosis toward “self.” PEMs were treated with LPS and activating cytokines along with various concentrations of IL-10 before testing their ability to phagocytose RBCs. FIG. 4B illustrates the phagocytic plasticity of WT red pulp macrophages. […] Treatments of cultured macrophages with LPS and IL-17 re-elicited their phagocytosis toward RBCs. […] Error bars are ±SEM. ***P<0.001 vs. freshly isolated splenic macrophages. FIG. 4D includes microscopic images of RBC phagocytosis by LPS- and IL-17-treated splenic macrophages. […] WT PEMs treated with LPS or IL-17 were further treated with Cd47^+ RBCs or Cd47-AP (10 min, 37° C.) followed by cell lysis, SIRPα immunoprecipitation, and WB detection of SIRPα phosphorylation (SIRPα^pY) and SHP-1 association. Data presented in each panel represent at least three independent experiments with n≥4, if applicable.
Ex vivo macrophage phagocytosis: Mouse spleens were harvested and minced in cold HBSS followed by passing through nylon meshes. The spleen cells in suspensions were collected by centrifugation followed by washing. After lysis of RBC, splenocytes were plated in cell culture dishes in DMEM with 10% FBS and cultured for 2 h followed by removal of non-adherent cells. The adherent cells, ˜70% being macrophages as determined by anti-F4/80 staining, were tested for phagocytosis. For phagocytosis of RBC or other tissue cells, targeted cells were labeled with CFSE prior to addition into the macrophage-containing wells. Macrophages and target cells, at a ratio of 1:5-10 for RBC or 1:1-2 for other cells, were co-incubated for 30 min at 37° C. followed by gently washing. Macrophage phagocytosis of target cells was then analyzed by fluorescence microscopy and/or by FACS. To better recognize macrophages, macrophages in wells were labeled with an anti-F4/80 or an anti-CD11b antibody. Alternatively, the freshly isolated splenocytes in suspension were incubated with CFSE-labeled RBC and other phagocytic targets for 30 min at 37° C. Macrophage phagocytosis was then determined by FACS after labeling macrophages with anti-F4/80. To test phagocytosis of apoptotic cells, B16 cells were irradiated by UV for 150 seconds at 50 J/m^2 strength. Apoptosis was analyzed at 2, 4, 6, 8 and 18 h post UV irradiation by labeling of the cells with anti-phosphatidylserine (PS) antibody (data not shown) or FITC-conjugated annexin V (data not shown). Cells that were confirmed to be apoptotic were trypsinized, labeled with CFSE, and then co-incubated with macrophages for 30 min at 37° C. After gentle washing, phagocytosis was analyzed by fluorescence microscopy and/or FACS. To test phagocytosis of bacteria and the fungal product zymosan, AlexaFluor-conjugated E.coli strain […] (2 μl suspension, ˜2 μg) or zymosan bioparticles (1 μl suspension, ˜2 μg) (both from Invitrogen) were incubated with macrophages for 30 min followed by washing and analyses. Similar procedures were performed to test phagocytosis of macrophages from various sources. […]

Syk = Syk phosphorylation at Y519/520 in PEMs; assay type: cell-based, mouse
Method: FIGS. 5A-5H include data related to our experiments on the role of Syk in phagocytic activation. […] PEMs were treated with LPS and cytokines in the presence of various inhibitors. After washing, inhibitor-free macrophages were tested for phagocytosis toward RBCs. […] PEMs treated with LPS and activating cytokines, or together with IL-10, were tested for total Syk and phosphorylated Syk (Syk^pY, specific at Y519/520). FIG. 5D describes PMA-induced macrophages phagocytosis toward RBCs. WT and SIRPα^−/− PEMs were treated with PMA (37° C., 30 min) before testing phagocytosis toward RBCs. FIG. 5E is a schematic depiction of PKC-Syk-mediated macrophage phagocytic activation toward self. […] Left: Inhibition of Syk by piceatannol and R406 prevented PMA-induced phagocytic activation. […] Error bars are ±SEM. ***P<0.001 vs. the respective controls. […] LPS-treated WT PEMs were further briefly treated with pervanadate before testing for phagocytosis toward RBCs. Error bars are ±SEM. ***P<0.001 vs. the respective controls. […] Data presented in each panel represent at least three independent experiments with n≥4, if applicable.
Multiple pharmacological inhibitors were tested for their effects on LPS and cytokine-induced activation of macrophage phagocytosis toward self. […] For example, inhibition of JAKs blocked IL-6 and IL-17, but not LPS and TNFα, for activation of PEM phagocytosis. […]

Molecule	clearance of transferred CD47^+ and CD47^− RBCs [1] [%]	peripheral hemoglobin reduction [2]	LPS-, IL-17-, IL-6-, TNFα-, and IL-1β-induced activation of PEM phagocytosis toward RBCs [3]	Syk phosphorylation (Syk^PY, Y519/520) (Syk)
dextran sodium sulfate [DSS]	~50	40-50	–	–
IL-10: phagocytic suppressive cytokine (protein, UniProt P22301 19-178, looked up) Interleukin-10: SPGQGTQSENSCTHFPGNLPNMLRDLRDAFSRVKTFFQMKDQLDNLLLKESLLEDFKGYLGCQALSEMIQFYLEEVMPQAENQDPDIKAHVNSLGENLKTLRLRLRRCHRFLPCENKSKAVEQVKNAFNKLQEKGIYKAMSEFDIFINYIEAYMTMKIRN	–	–	dose-dependently inhibited	counter-repressed Syk phosphorylation
